Laboratory results: patent US9138437B2, “Pyrimidine substituted purine compounds as kinase (S) inhibitors” (VERASTEM, INC., priority 2009, dated 2015)
In brackets after ≈: the same amount, converted by molar mass. Where two headings read alike, the source gives them in different places.

Key:
physchem = settings: pH 7, aqueous buffer, kinetic from dmso stock
Description: (§1) Compound solubility is determined in a high-throughput kinetic solubility profiling method using a 96-well format. Compound solubility is assessed using a UV/Visible Microplate Spectrophotometer (Molecular Devices SpectraMax Plus384). Vorinostat (SAHA) and Nicardipine, purchased from Sigma, are used as reference standards.
(§2) The mixture is then shaken at 600 rpm for 1.5 h and allowed to stand at room temperature for 2 h. […] The resulting supernatant (80 μL) is transferred to the UV-analysis plate and diluted with DMSO (20 μL). The samples are quantified using calibration stocks of the respective compound made in phosphate buffer/DMSO (80:20).

in vitro = settings: human, pH 7.4; for half-life: microsomes
Description: Verapamil, purchased from Sigma-Aldrich, is used as a reference standard in the assay. HLM are purchased from Xeno Tech (20 mg/mL in 250 mM sucrose solution). A 100 mM stock solution of potassium phosphate buffer is pre-prepared by combining 80 mL of 1M K2HPO4 and 20 mL of 1 M KH2PO4 in 900 mL of water (pH adjusted to 7.4 using diluted HCl) and stored at room temperature. K2HPO4.3H20 and KH2PO4 are obtained from Sigma Aldrich and the NADPH Regeneration System Solutions A and B from Gentest. The stop solution used to quench the reaction is a pre-prepared mixture of acetonitrile and DMSO (80:20) and is stored at 4° C. All solvents used are HPLC grade and the water used during the stock solution preparation and during LC-MS analysis is deionised using a Milli-Q system.
8 μL of the compound mix is then added to 72 μL of a pre-prepared incubation mix made up of water (2250 μL), 100 mM potassium phosphate buffer (2900 μL), NADPH Regeneration System Solution B (58 μL), NADPH Regeneration System Solution A (290 μL) and HLM (250 μL). The resulting reaction mixture (final compound concentration of 5 μM) is then incubated at 37° C. in a B. Braun Certomat H incubator after which a 50 μL aliquot is dispensed to a well on a separate plate well containing 100 μL of Stop solution. […] Each test compound is sampled multiple times and incubated for a series of time points (5, 15, 30, 45 and 60 min). Remaining compound concentration is determined by LC-MS (ABI Qtrap 3200) and comparison to a reference solution of known concentration. Stability is then expressed as a half-life in minutes (t½).

[1] = High throughput solubility assay (kinetic, UV); settings: pH 7
Description: as §1, §2

| Structure (SMILES) | solubility (physchem) | half-life (in vitro) | solubility, assessment in words (as drug candidate) | half-life at 5 μM (in vitro; liver microsomes) | solubility, assessment in words [1] | solubility, assessment in words (pH 7) |
| --- | --- | --- | --- | --- | --- | --- |
| CCC(C)n1c(Br)nc2c(-c3cnc(N)nc3)nc(N3CCOCC3)nc21 (stereo not shown) [Cmpd A] | 44 µM (≈ 19.1 µg/mL) | > 60 min | low solubility |  |  |  |
| CC(C)n1c(Br)nc2c(-c3cnc(N)nc3)nc(N3CCOCC3)nc21 [Cmpd B] | 18 µM (≈ 7.55 µg/mL) |  |  | > 60 min | low solubility |  |
| CCc1nc2c(-c3cnc(N)nc3)nc(N3CCOCC3)nc2n1C(C)C [Cmpd C] | > 250 µM | 36 min | acceptable |  |  |  |
| CCC(C)n1c(C)nc2c(-c3cnc(N)nc3)nc(N3CCOCC3)nc21 (stereo not shown) [Cmpd D] | > 250 µM | 26 min | acceptable |  |  |  |
| CCC(C)n1cnc2c(-c3cnc(N)nc3)nc(N3CCOCC3)nc21 (stereo not shown) [Cmpd E] | 35 µM (≈ 12.4 µg/mL) | > 60 min | low solubility |  |  |  |
| Cc1nc2c(-c3cnc(N)nc3)nc(N3CCOCC3)nc2n1C(C)C [Cmpd of the invention, 5-(9-isopropyl-8-methyl-2-morpholin-4-yl-9H-purin-6-yl)-pyrimidin-2-ylamine] |  |  |  |  |  | acceptable |
